Data reported in ChEMBL document CHEMBL1123040, “Molecular mechanism of action of 5,6-dihydroxytryptamine. Synthesis and biological evaluation of 4-methyl-, 7-methyl-, and 4,7-dimethyl-5,6-dihydroxytryptamines” (J Med Chem, 1985).

Legend:
[1] = biological target: T1, Sodium-dependent serotonin transporter (Rattus norvegicus, UniProt P31652); assay: Inhibitory activity against incorporation of [3H]5-HT transporter uptake into the differentiated N-2a cells.; format: cell-based
[2] = biological target: T1, Sodium-dependent serotonin transporter; assay: Inhibitory activity against incorporation of Serotonin transporter uptake into the differentiated N-2a cells.; format: cell-based

T1 sequence (P31652 whole entry): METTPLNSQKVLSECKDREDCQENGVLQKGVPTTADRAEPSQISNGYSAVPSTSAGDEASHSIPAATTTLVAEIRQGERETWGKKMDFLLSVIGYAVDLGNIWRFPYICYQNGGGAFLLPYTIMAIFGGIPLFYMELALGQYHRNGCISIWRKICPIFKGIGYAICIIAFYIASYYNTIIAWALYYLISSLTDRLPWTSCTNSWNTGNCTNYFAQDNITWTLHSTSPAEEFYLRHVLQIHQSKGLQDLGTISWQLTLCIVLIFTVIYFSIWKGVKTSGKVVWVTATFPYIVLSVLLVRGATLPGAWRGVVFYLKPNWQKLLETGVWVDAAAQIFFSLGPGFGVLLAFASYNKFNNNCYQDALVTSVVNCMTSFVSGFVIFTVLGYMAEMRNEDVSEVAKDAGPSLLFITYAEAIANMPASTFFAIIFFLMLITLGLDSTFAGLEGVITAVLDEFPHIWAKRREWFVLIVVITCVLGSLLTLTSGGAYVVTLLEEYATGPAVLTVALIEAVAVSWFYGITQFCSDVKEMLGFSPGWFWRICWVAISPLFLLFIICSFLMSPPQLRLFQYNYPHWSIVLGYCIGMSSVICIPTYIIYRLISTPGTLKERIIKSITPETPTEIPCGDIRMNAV

## Cc1c(O)c(O)cc2c(CCN)c[nH]c12
[1]
  IC50: 51.8 µM

## Cc1c(O)c(O)c(C)c2c(CCN)c[nH]c12
[1]
  IC50: 19.7 µM

## Cc1c(O)c(O)cc2[nH]cc(CCN)c12
[1]
  IC50: 23 µM

## NCCc1c[nH]c2cc(O)c(O)cc12
[2]
  IC50: 6 µM
